The values that follow come from paper PMC11799930, “Discovery of potent measles virus fusion inhibitor peptides via structure-guided derivatization” (RSC Medicinal Chemistry, 2025).

Data set [1] relates to MeV-EGFP. The settings on record: viral entry inhibition assay; for IC50 / IC90: Vero/hSLAM cells, MeV-EGFP; for IC50: triplicate; for IC90: calculated from Hill coefficient and IC50. Here is the method:
(§1) To evaluate how modifying the C-terminus of FIP affects the interactions of FIP and MeV-F, we synthesized three FIP derivatives, named FIP-G3A, FIP-G3a, and FIP-NH2 (Fig. 2a). The inhibitory activities of the derivatives were evaluated using a virus-mediated cell-to-cell fusion assay (Fig. 2b). In this assay, Vero cells stably expressing hSLAM (Vero/hSLAM cells)[21] were infected with EGFP-recombinant MeV (MeV-EGFP) for 1 h at 37 °C, then the medium containing MeV-EGFP was replaced with a medium containing each FIP derivative and incubated at 37 °C for 48 h. The inhibitory activity was assessed based on the size and area of the syncytia observed by fluorescence microscopy, albeit qualitatively. […] To more quantitatively compare the inhibitory activity of FIP and FIP-NH2 against MeV infection in cells, a viral entry inhibition assay was conducted using a serially diluted compound, and the IC50 and IC90 values of the compounds were determined. In this assay, Vero/hSLAM cells were infected with inhibitor-treated MeV-EGFP at 37 °C for 1 h. Subsequently, the supernatant was replaced with a medium containing 100 μM of FIP, and the cells were further incubated at 37 °C for 48 h. Finally, the number of virus-infected cells was quantified using fluorescence microscopy. […]
pfu/well and incubated with peptide solution in 10% FBS/DMEM containing 0–1% DMSO for 30 min at room temperature. Vero/hSLAM cells were then infected with the inhibitor-treated MeV-EGFP for 1 h at 37 °C. The supernatant, including the virus, was replaced with 100 µM FIP (Peptide Institute, Inc. cat#4092) solution in 0–1% DMSO in 10% FBS/DMEM, and EGFP-positive cells were counted under fluorescence microscopy (BZ-X710, keyence) after incubation for 48 h at 37 ℃. The entry inhibition rate was calculated as 100 − (the number of sample EGFP positive cells − the number of cell-only control EGFP positive cells) / (the number of viral control EGFP positive cells − the number of cell-only control EGFP positive cells) × 100. This experiment was performed in triplicate. IC50 values were calculated using parameters determined by fitting the plot to a four-parameter logistic regression model (Hill equation) implemented in Python (Matplotlib and SciPy libraries). The equation used was: y = d + (a – d) / (1 + (x / c)b). x, y, a, b, c, and d represent peptide concentration, fraction of infected cells, maximum response, Hill coefficient (degree of cooperativity), IC50, and minimum response, respectively. Curve fitting was performed using the curve_fit function from the SciPy library, and IC90 values were calculated using the derived Hill coefficient and IC50 values. […]
(BZ-X710, keyence) after incubation for 48 h at 37 ℃. […]

Data set [2] has as its system MeV-EGFP. Briefly: Virus-mediated cell-to-cell fusion assay (syncytia in Vero/hSLAM cells infected with MeV-EGFP). The data set is classed as cell-based, Measles virus. The settings on record: 48 h, qualitative. As for the experimental part: as §1
Virus-mediated cell-to-cell fusion assay. Vero/hSLAM cells were cultured in 96 well plates (Thermo scientific cat#167008) overnight at 37 ℃. Vero/hSLAM cells were then infected with MeV-EGFP (200 pfu / well) for 1 h. The supernatant, including the virus, was replaced with 10% FBS/DMEM with or without 1, 10, 100 µM FIP or a FIP derivative. The images of cell-to-cell fusion were captured by fluorescence microscopy (BZ-X710, keyence) after incubation for 48 h at 37 ℃.

For data set [3], the target named is T1, MeV-F wild type (Measles virus, UniProt Q786F3).
T1 construct: wild-type full-length MeV-H (pCA7-ICH) and MeV-F; expressed in transfected cells; host or cells: Vero/hSLAM cells
The data set is classed as cell-based. The conditions noted are these: qualitative; for inhibition of syncytia formation: 24 h. From the text: To obtain new interactions, we designed and synthesized FIP-NH2 derivatives in which Gly residue is replaced with a D-amino acid residue shown in Fig. 3a (FIP-G3x-NH2, x = d, e, h, k, n, q, r, s, t). To avoid proteolytic degradation of the derivatized peptides, D-amino acid residues were adopted. Because FIP consists of hydrophobic structures, polar residues were recruited for replacing the Gly residue to avoid poor aqueous solubility of the resulting derivatives. The inhibitory activities of the synthesized derivatives were evaluated by cell-to-cell fusion assay. In this assay, each FIP derivative was added to the medium of Vero/hSLAM cells transiently expressing MeV-F, MeV-H, and EGFP, and the cells were incubated at 37 °C for 24 h. The cells were observed under a fluorescence microscope, and inhibition of the syncytia formation was qualitatively assessed based on the size and area of emitting fluorescence (Fig. 3b). We also synthesized and evaluated the reverse sequence of FIP, FIP-rev (Z-Gly-Phe-D-Phe-OH), and the enantiomer of FIP, FIP-enan (Z-Phe-D-Phe-Gly-OH), as negative controls.
Fig. 3 Chemical structures and cell-to-cell fusion assay of FIP and its derivatives using Vero/hSLAM cells expressing MeV-F and MeV-H. a) Chemical structures of FIP and its derivatives. b) A schematic illustration of cell-to-cell fusion assay. […] All the experiments were conducted in triplicate. […]
(BZ-X710, keyence) after incubation for 48 h at 37 ℃.
Cell-to-cell fusion assay using wild-type MeV-F plasmid. Vero/hSLAM cells in 96-well plate were transfected with 0.01 µg pCA7-ICH, 0.0375 µg pCA7-ICF and 0.3 µg pCA7 plasmid encoding EGFP (pCA7-EGFP) using VeroFect (0.695 µL, OZ Biosciences) in 10% FBS/DMEM when the confluency of the cells was about 90%. FIP or an FIP derivative in DMSO was added in each sample to 100 or 0.5 µM as the final […]
concentration. […]

Data set [4] can be described thus: physchem. The data set is classed as physicochemical.
For data set [5] the following is noted: 1 μM inhibitor in serum.
Data set [6] relates to MeV. Further details: method as in PMID 7414950. The settings on record: plaque assay for MeV; cited from earlier work.
Data set [7] is described as follows: in vitro. The conditions noted are these: bovine.
For data set [8], the target named is T2, E471S mutant of MeV-F (Measles virus, UniProt Q786F3, E471S).
T2 construct: Full-length E471S MeV-F was amplified through PCR and site-directed mutagenesis; expressed in transfected cells; host or cells: Vero cells per the methods
Briefly: Cell-to-cell fusion assay using MeV-F E471S mutant. The data set is classed as cell-based. The settings on record: Fig. 4e, qualitative. The text has this: To identify the plausible new interactions formed between FIP-G3r-NH2 and MeV-F, we conducted docking simulations using Autodock Vina.[22,23] First, we conducted a docking simulation of FIP and MeV-F to assess the reliability of the docking simulations (Fig. 4a). […] We then conducted a docking simulation of FIP-G3r-NH2 and MeV-F (Fig. 4c). We found a docking pose in which the binding conformation of the main chain and the aromatic ring of FIP-G3r-NH2 is similar to that of FIP (Fig. 4d). […] It should be noted that the MeV-F E471S mutant protein was synthetically produced for this experiment, and, to our knowledge, this mutant has not been reported as a natural variant. […]
pfu/well and incubated with peptide solution in 10% FBS/DMEM containing 0–1% DMSO for 30 min at room temperature. […] The supernatant, including the virus, was replaced with 100 µM FIP (Peptide Institute, Inc. cat#4092) solution in 0–1% DMSO in 10% FBS/DMEM, and EGFP-positive cells were counted under fluorescence microscopy (BZ-X710, keyence) after incubation for 48 h at 37 ℃. The entry inhibition rate was calculated as 100 − (the number of sample EGFP positive cells − the number of cell-only control EGFP positive cells) / (the number of viral control EGFP positive cells − the number of cell-only control EGFP positive cells) × 100. […]

Data set [9] addresses MeV-F (prefusion-stabilized ectodomain trimer). Briefly: Surface plasmon resonance (SPR) binding to MeV-F. Further details: species or system Measles virus. The conditions noted are these: peptides (EG-K derivatives) immobilized on sensor chip, MeV-F as analyte, 25 °C.

Values after ≈ are worked out from the molar mass of the structure shown. “Also recorded” adds a separate entry of the source. Where two headings read alike, the source gives them in different places. Where a SMILES comes first, the peptide text is derived from it. [ ]: non-standard residue; d: D form. The star is where a group is joined. Cbz = O=C(OCc1ccccc1)*; AEEA = NCCOCCOCC(=O)O

`O=C(O)CNC(=O)[C@H](Cc1ccccc1)NC(=O)[C@@H](Cc1ccccc1)NC(=O)OCc1ccccc1` [FIP, Z-D-Phe-Phe-Gly, reference compound] (Cbz-[dF]-Phe-Gly-OH): the concentration for half-maximal inhibition (IC50) was 1.3 µM in data set [1] and 0.2 µM in data set [6]. In addition, the IC90 in [1] is 12 µM. In addition, the “inhibition of syncytia formation” value is “inhibited fusion only weakly” in data set [2] (1 μM); “strongly inhibited syncytia formation” in data set [2] (10 μM); “strongly inhibited syncytia formation” in data set [2] (100 μM); “weakly inhibited syncytia formation” in data set [3] (0.5 μM); “strongly inhibited syncytia formation” in data set [3] (100 μM). The amount in solution in data set [4] (solubility) came to 98 ± 1 µM (≈ 49.3 µg/mL). Further, the “proteolytic stability in serum” value in [5] is recorded as “high proteolytic stability”. The compound further displayed a half-life at 1 μM in data set [7] above 24 h.

For the compound `N=C(N)NCCC[C@@H](NC(=O)[C@H](Cc1ccccc1)NC(=O)[C@@H](Cc1ccccc1)NC(=O)OCc1ccccc1)C(N)=O` [FIP-G3r-NH2] (Cbz-[dF]-Phe-[dR]-NH2), in data set [1], the half-inhibitory concentration (IC50) was determined as 0.21 µM. For the same compound, the concentration for an effect of 90% (IC90) in data set [1] is 1.8 µM. Also, the “fold higher inhibitory activity than FIP (IC50)” value in [1] (relative to FIP) is “about six-fold”. In [3] (0.5 μM), the “inhibition of syncytia formation” value is recorded as “higher inhibitory activity than FIP-NH2; also recorded: completely inhibited the syncytia formation”. The “membrane fusion inhibitory activity” value in [3] (MeV-F wild type (WT), Fig. 4e) was “higher membrane fusion inhibitory activity than FIP”; in data set [8], “dropped to the same level as FIP”. The compound also gave a Kd in data set [9] of 0.0066 µM. In data set [4], this compound displayed a solubility of 83 ± 4 µM (≈ 49.9 µg/mL). Further, the “proteolytic stability in serum” value in data set [5] is “high proteolytic stability”. The half-life at 1 μM in data set [7] was above 24 h.

The compound `N=C(N)NCCC[C@@H](NC(=O)[C@H](Cc1ccccc1)NC(=O)[C@@H](Cc1ccccc1)NC(=O)OCc1ccccc1)C(=O)NCCOCCOCC(=O)N[C@@H](CCCCN)C(N)=O` [FIP-G3r-NH-EG-K] (Cbz-[dF]F[dR][AEEA]K-NH2) yielded a Kd in [9] of 0.0066 µM.

Turning to `NC(=O)CNC(=O)[C@H](Cc1ccccc1)NC(=O)[C@@H](Cc1ccccc1)NC(=O)OCc1ccccc1` [FIP-NH2] (Cbz-[dF]-Phe-Gly-NH2), in data set [1], the concentration for half-maximal inhibition (IC50) was found to be 0.51 µM and the concentration for an effect of 90% (IC90) is 3.6 µM. Further, the “inhibition of syncytia formation” value in data set [2] (1 μM) is listed as “a little higher inhibitory activity than FIP”. Moreover, the “inhibitory activity against MeV-induced cell fusion compared with FIP” value in data set [2] (100, 10 or 1 μM) is listed as “did not decrease the inhibitory activity”. The same compound came in with a Kd in [9] of 0.081 µM.

In data set [9], `NCCCC[C@H](NC(=O)COCCOCCNC(=O)CNC(=O)[C@H](Cc1ccccc1)NC(=O)[C@@H](Cc1ccccc1)NC(=O)OCc1ccccc1)C(N)=O` [FIP-NH-EG-K] (Cbz-[dF]FG[AEEA]K-NH2) had a Kd of 0.081 µM.

Regarding Cbz-Gly-Phe-[dF]-OH [FIP-rev], in data set [3] (100 μM), the “inhibition of syncytia formation” value is on record as “lower inhibitory activity than FIP”.

Cbz-Phe-[dF]-Gly-OH [FIP-enan]: in [3] (100 μM), the “inhibition of syncytia formation” value was “lower inhibitory activity than FIP”.

Usually IC50 stands for the point on the concentration scale where inhibition reaches its midpoint. What is called IC90 is the concentration at which the effect reaches the 90% level. One may read the solubility as the dissolved amount per volume that the medium holds. Broadly, the half-life is how long it takes for the measured level to halve. Lower therefore signals fast loss. As usually defined, the Kd is a measure of binding affinity in units of concentration. Read a high Kd as a looser complex.
